From paper PMC4160910 (European journal of medicinal chemistry, 2014)

Assays:
all stages of S. mansoni = details: ref [14],[20]; cited from earlier work
[1] = tested on: cultured adult S. japonicum worms; details: ref [14],[20]; cited from earlier work
[2] = tested on: cultured adult S. haematobium worms; details: ref [14],[20]; cited from earlier work
[3] = tested on: adult Schistosoma mansoni worms; assay: Worm killing of cultured adult worms, monitored over 144 hrs; format: cell-based; details: at the concentrations tested (10 and 50 µM)
[4] = tested on: adult Schistosoma mansoni worms; assay: Worm contraction of cultured adult worms; format: cell-based; details: after overnight culture with compound, 10 and 50 µM

Row | Compound | Activity against all stages of S. mansoni (all stages of S. mansoni) | Activity against cultured adult S. japonicum worms [1] | Activity against cultured adult S. haematobium worms [2] | Time at which worms begin to die after compound is removed from culture media [3] | Time for worms to return to normal length [4]
1 | N#Cc1c(-c2ccccc2)no[n+]1[O-] [Compound 2, 4-phenylfuroxan-3-carbonitrile] | active | active | active |  | 
2 | O=C(C1CCCCC1)N1CC(=O)N2CCc3ccccc3C2C1 (centres unmarked) [PZQ, 2-(cyclohexylcarbonyl)-1,2,3,6,7,11b-hexahydro-4H-pyrazino[2,1-a]isoquinolin-4-one] |  |  |  | 4 to 5 days | > 2 days
